Read-outs that look alike come from different tables or passages of the source.
Columns and labels:
[1] = tested on: CD4 and CD8 T cells from human peripheral blood; assay: T cell activation in PBMC, flow cytometry with TriMAP/FlowSOM; format: cell-based; settings: 10^-7 M, 24 h, anti-CD3 and anti-CD28, compared to ethanol treated cells
Experimental: Human peripheral blood mononuclear cells (PBMC) from two healthy individuals were obtained from a pre-existing respository. Their use was approved by the University of Alabama at Birmingham Institutional Review Board (Human Subject Assurance Number FWA00005960) as an exempt protocol #4 (Dr C. Raman, P.I.). […] Informed consent is waived in accord with 45CFR46.116 (d). In 48 well plates, 0.5×10^6 PBMC/well were cultured in RPMI1640 containing, 5% charcoal adsorbed FBS and antibiotics and T cells were activated using […] anti-CD3 (clone 145-2C11) and 1 μg/ml anti-CD28 (clone 37.51) for 24 h (Janjetovic Z, et. al., (2021) Endocrinology 162(1), Chaiprasongsuk A, et. al., (2020) Free Radic Biol Med 155 87-98, Slominski A T, et. al., (2011) Am J Physiol Cell Physiol 300(3) C526-41, McGuire D J, et. al., (2014) Eur J Immunol 44(4) 1137-42, Sestero C M, et. al., (2012) J Immunol 189(6) 2918-30). The culture was treated with 10^-7 M 20S(OH)D3, 20S,25(OH)2D3, 20S,23S(OH)2D3, 20S,23R(OH)2D3 or 1α,25(OH)2D3 (Sigma-Aldrich, St. Louis, MO, USA) dissolved in ethanol and diluted in culture medium at the same time of addition of anti-CD3 and anti-CD28. The vehicle control comprised of 0.1% ethanol. At the end of assay the cells were stained with antibodies to CD4 (clone RPA-T4, BV-421), CD19 (clone HB19, BV-510), CD14 (clone HCD14, Alexa 700), CD137 (clone 4B4-1, BV605), CD8a (clone RPA-T8, FITC), ICOS (clone C398.4A, PE/Dazzle), PD1 (clone NAT105, PE), CD80 (clone 2D10, PerCP/Cy5.5), OX40 (clone ACT35, PE/Cy7), CD69 (clone FN50, APC), HLA-DR (clone L243, APC/Fire 750). All antibodies were from Biolegend except anti-CD8 was from Thermo Fisher. The stained cells were analyzed using a CytoFLEX (Beckman Coulter) flow cytometer.
For unbiased analysis of the multidimensional data, acomputational algorithm-based approaches was utilized (Quintelier K, et. al., (2021) Nature Protocols 16(8) 3775-3801). The flow cytometry standard (FCS) data files from each individual and treatment (two individuals, six treatments including ethanol, a total of 12 data files) were processed through the following workflow—compensation, gating on live cells, gating for single cells and subtraction of CD19+(B cells) and CD14+(monocytes). B cells and monocytes were removed from the analysis because only T cells (CD4+ and CD8+) are activated by anti-CD3 and anti-CD28. After these initial gating steps, a key word was added to each of the 12 FCS files, down sampled to 50,000 events/sample and concatenated. Down sampling ascertains that each sample is equally weighted, and concatenation ascertains that statistical analysis is applied equally. The concatenated files were first subjected to TriMAP analysis, a computational algorithm that clusters populations based on triplet relatedness followed by FlowSOM algorithm-based clustering (Quintelier K, et. al., (2021) Nature Protocols 16(8) 3775-3801). To perform these analyses, plugins within FlowJo (BD, CA, USA) were used.
T cells in peripheral blood from two healthy individuals were activated with anti-CD3 and anti-CD28 in the absence (ethanol) or presence of 10^−7 M of each of the vitamin D3 secosteroids for 24 h. The cells were stained for lineage markers (CD4, CD8, CD19, CD14) and a panel of activation induced markers (CD69, ICOS, OX40, CD137, PD1, HLADR) and expression data were collected using a flow cytometer. The gating strategy was live, single cell followed by CD4 and CD8 T cell populations. […]

[2] = cited from earlier work

| Compound | CD4 T cells of population 4 (down modulated CD4, increased CD69 and ICOS) [1] | calcemic activity / toxicity ([2]; in vivo) | calcemic activity / toxicity ([2]; literature, at the same doses) |
| --- | --- | --- | --- |
| C=C1CC[C@H](O)C/C1=C/C=C1\CCC[C@@]2(C)[C@H]1CC[C@@H]2[C@@](C)(O)CC(O)CC(C)C (stereo partly shown) [20S,23(OH)2D3, 20,23-dihydroxyvitamin D3] | no effect on this population |  |  |
| C=C1/C(=C\C=C2/CCC[C@]3(C)[C@@H]([C@H](C)CCCC(C)(C)O)CC[C@@H]23)C[C@@H](O)C[C@@H]1O [1α,25(OH)2D3, reference compound] | fewer cells | highly toxic |  |
| 25(OH)D3 [reference compound] |  |  | highly toxic |

— patent publication US20240327320A1, “NOVEL ROUTES OF CHEMICAL SYNTHESIS OF 20S(OH)D3, 20S,25(OH)2D3, 20S,23S(OH)2D3, AND 20S,23R(OH)2D3 AND THEIR MODIFICATION OF THE IMMUNE ACTIVITY OF PBMCS” (United State Government as represen ted by the Department …, priority 2023, published 2024)
